This passage reports pKa and IC50 results from ChEMBL document CHEMBL1130320, “Hypoxia-selective antitumor agents. 15. Modification of rate of nitroreduction and extent of lysosomal uptake by polysubstitution of 4-(alkylamino)-5-nitroquinoline bioreductive drugs” (J Med Chem, 1997).

Data set [1] in a line: physchem. The note with it: aqueous solution.
Description: Affinity constant determined in aqueous solution
In another data set the test system is CHO-AA8. Put plainly: cells. The conditions noted are these: Cricetulus griseus, CHO-AA8, 18 h.
The nature of data set [2]: physchem. The conditions noted are these: aqueous solution. The source holds these as a separate data set.
Description: Pka was determined in aqueous solution

Description for CHO-AA8: Growth inhibition of aerobic AA8 cells, after 18 hours exposure

One may read the pKa as the negative logarithm of the acid dissociation constant. Read a high pKa as a group that holds its proton tightly. Usually IC50 stands for the concentration at which inhibition is half-maximal. With `O=[N+]([O-])c1cccc2nccc(NCCN3CCOCC3)c12`, the pKa in the data set “physchem [1]” was found to be 6.78. The compound further returned an IC50 in the data set with CHO-AA8 of 18 µM.
Taken in the same sequence, the figures for `Cc1cc(C)c2nccc(NCCCN(C)C)c2c1[N+](=O)[O-]` were 6.37 and 74 µM.
For the compound `COc1ccc([N+](=O)[O-])c2c(NCC(O)CO)ccnc12` (configuration not stated), the pKa in the data set “physchem [1]” came to 7.1. For the same compound, half-maximal inhibition in the data set with CHO-AA8 (IC50) required 50 µM.
Taken in the same sequence, the figures for `Cc1ccc([N+](=O)[O-])c2c(NCCCN(C)C)cc(-c3ccccc3)nc12` were 5.43 and 12 µM.
On to `Cc1cnc2ccc(C)c([N+](=O)[O-])c2c1NCCCN(C)C`, for which the pKa in the data set “physchem [2]” turned out to be 6.07. In addition, in the data set on CHO-AA8, half-maximal inhibition (IC50) required 201 µM.
Regarding `COc1ccc([N+](=O)[O-])c2c(NCCCN(C)C)c(C)c(C)nc12`, the pKa in the data set “physchem [1]” is 6.64. Moreover, the IC50 with CHO-AA8 is 166 µM.
Taken in the same sequence, the figures for `O=[N+]([O-])c1cccc2nccc(NCCCO)c12` were 7.06 and 26 µM.
For the compound `CCCCNc1ccnc2cccc([N+](=O)[O-])c12`, the pKa in “physchem [1]” worked out at 7.18. For the same compound, in the data set on CHO-AA8, it took 9.6 µM to reach half-maximal inhibition (IC50).
For the compound `Cc1ccc([N+](=O)[O-])c2c(NCC(O)CO)ccnc12` (configuration not stated), the pKa in “physchem [1]” worked out at 7.2. In addition, inhibition in the data set with CHO-AA8 was half-maximal at 110 µM (IC50).
Regarding `Cc1nc2cccc([N+](=O)[O-])c2c(NCCCN(C)C)c1C`, the pKa in “physchem [1]” turned out to be 6.64. The compound also gave an IC50 in the data set on CHO-AA8 of 47 µM.
For `COc1cc(OC)c2nccc(NCCCN(C)C)c2c1[N+](=O)[O-]`, the pKa in “physchem [1]” came to 6.25. Also, the IC50 in the data set on CHO-AA8 worked out at 186 µM.
In the data set “physchem [1]”, `Cc1cnc2c(C)ccc([N+](=O)[O-])c2c1NCCCN(C)C` displayed a pKa of 6.1. Moreover, the IC50 in the data set on CHO-AA8 is 277 µM.
Taken in the same sequence, the figures for `CCc1ccc2nccc(NCCCN(C)C)c2c1[N+](=O)[O-]` were 6.2 and 108 µM.
Taken in the same sequence, the figures for `Cc1nc2c(C)ccc([N+](=O)[O-])c2c(NCCCN(C)C)c1C` were 6.67 and 113 µM.
In the data set “physchem [2]”, `CN(C)CCNC(=O)c1ccc(NNc2ccnc3cccc([N+](=O)[O-])c23)cc1` registered a pKa of 5.08. Moreover, it took 13 µM to reach half-maximal inhibition in the data set on CHO-AA8 (IC50).
Compound `O=[N+]([O-])c1cccc2nccc(NCC(O)CO)c12` (configuration not stated) displayed a pKa in “physchem [1]” of 6.81. Moreover, the IC50 in the data set with CHO-AA8 is 33 µM.
